From patent US10227343B2, “Isoquiniline and napthalene-substituted compounds as mGluR4 allosteric potentiators, compositions, and methods of treating neurological dysfunction” (Vanderbilt University, priority 2015, dated 2019)

System: haloperidol induced catalepsy
Assay: reversal of haloperidol induced catalepsy
Assay type: in vivo, Sprague-Dawley rats
Details: rats, haloperidol 1.5 mg/kg i.p., compound 0.1-56.6 mg/kg oral, tested 30 minutes after compound; data in FIG. 5
Method: Animals. Male Sprague-Dawley rats weighing between 275 and 300 g (Harlan Laboratories, Indianapolis, Ind.) were used for the behavioral studies and were maintained in accordance with American Association for the Accreditation of Laboratory Animal Care guidelines under a 12-h light/dark cycle (lights on at 6 AM, lights off at 6 PM) with free access to food and water. The experimental procedures, which were performed during the light cycle, were approved by the Institutional Animal Care and Use Committee of Vanderbilt University and conformed to the guidelines established by the National Research Council Guide for the Care and Use of laboratory Animals. Rats were injected with haloperidol (1.5 mg/kg, i.p., dissolved in 8.5% lactic acid, pH=6) 60 minutes prior to the oral administration of Example 46 ((0.1-56.6 mg/kg) or vehicle (10% Tween 80). 30 minutes after compound administration all rats were tested for catalepsy. Catalepsy was assessed using a horizontal bar placed 6 cm from the testing surface. The forepaws of each rat were placed gently on the bar with the body positioned at an angle of ˜45° to the testing surface. The latency in seconds required for the rat to remove one or both forepaws from the bar was manually measured with a cutoff of 30 seconds.

Q: How did the “reversal of haloperidol induced catalepsy” value turn out when `FC(F)(F)c1nccc2cc(Nc3n[nH]c4ncccc34)ccc12` [Example 46, N-(1H-pyrazolo[3,4-b]pyridin-3-yl)-1-(trifluoromethyl) isoquinolin-6-amine] was run?
A: reversal of haloperidol induced catalepsy
